From patent US8771755B2, “Preparation and compositions of highly bioavailable zerovalent sulfur and uses thereof” (Nuevas Alternativas Naturales, S.A.P.I. de C.V., priority 2011, dated 2014)
Like-named read-outs stand apart in the source and are kept apart here.

Tests used:
[1] = system: superoxide formation and expression of p47phox (a subunit of NOX); conditions: Shukla et al., BJU Int. 2009; cited from earlier work
[2] = Percentage bioactive sulfur contained in hydrogen sulfide prodrugs; assay type: physicochemical
[3] = system: pregnant rat uterine contractility; conditions: in vitro, Sidhu et al. 2001; cited from earlier work
angiogenesis = conditions: in the drinking water; via increasing VEGF expression; Givvimani et al. 2011; cited from earlier work
[4] = comparison substance; cited from earlier work
[5] = system: patients with idiopathic oligoasthenozoospermia; assay: Prospective, randomized, double blind study in idiopathic oligoasthenozoospermia, semen analysis; assay type: in vivo, human; conditions: first sample (baseline, before treatment)
Description: A prospective, randomized, double blind study evaluated and approved by the Ethics Committee of the Universidad Autónoma de Nuevo León University Hospital (Monterrey, Mexico) with registration number BR09-001 was conducted. The study included patients who attended the Reproductive Biology Clinic of the University Hospital from July 2009 to September 2010 who desired to be pregnant and met the inclusion criteria. Patients between 20 and 45 years of age with a diagnosis of idiopathic oligoasthenozoospermia wishing to participate in the study after signing informed consent were included. The diagnosis of oligoasthenozoospermia was reached by performing two semen analyses on different dates with an interval of three weeks in between. To make the diagnosis, the results of the semen analyses needed to report less than 25% type A sperm motility or less than 50% type A+B sperm motility as detailed in the World Health Organization Laboratory Manual for the Examination of Human Semen and Semen-Cervical Mucus Interaction, 4th ed. New York: Cambridge University Press, 1999. Type A Motility comprised rapid progression; type B motility comprised medium progression; type C mobility comprised slow or clumsy progression; and type D mobility comprised immotile. Oligozoospermia was defined as a concentration of less than 20 million sperm per milliliter, according to the criteria of the World Health Organization. Oligoasthenozoospermia was defined as the presence of oligozoospermia and asthenozoospermia in the same patient. In each semen analysis, morphology was manually assessed using Kruger strict criteria.
Infertile patients with normal findings on semen analysis, patients who were chronic smokers or those who had been taking antioxidants in the last 6 months prior to study entry were excluded. Patients with chronic degenerative diseases such as diabetes or high blood pressure or with hormonal abnormalities were also excluded.
A complete medical history and physical examination was obtained for all patients. All study participants underwent a second semen analysis to confirm the diagnosis after a sexual abstinence of 3 to 5 days. This semen analysis was considered baseline (sample 1). On a second visit this new semen analysis was reviewed to confirm oligoasthenozoospermia and one of the 3 substances to be taken was randomly prescribed for 75 days. The substances given were 1.5 g of hydrogen sulfide prodrug as an antioxidant, 50 mg of resveratrol as an antioxidant, and 1.5 g of microcrystalline cellulose as a placebo.
Randomization of the substance given to each patient was performed by placing in a drawer at random all the containers having exactly the same color, size, and shape with the three separate substances (hydrogen sulfide prodrug, resveratrol, and placebo) without any kind of reference as to the content. […] The attending physician and the patient were unaware of the contents of the container. […] Each patient was asked to take a container at random and the container number was recorded in the patient's medical record. At the end of the study, before statistical analysis, we obtained the relationship between the numbers on the labels and the contents, grouping patients according to the substance. Each patient was given a treatment adherence form (a patient log) in order to count the days of medication and record adverse events, if these occurred, including the type and frequency.
The patients were scheduled one month after starting treatment (third visit) in order to document adverse effects and adherence to treatment.
In the next scheduled consultation (fourth visit), carried out 75 days after starting treatment; adherence was verified and adverse effects were reported. For this visit, the patients presented with 3 to 5 days of sexual abstinence for post-treatment semen analysis (sample 2). […]

[6] = sulfur capable of being converted into hydrogen sulfide in vivo, prior art prodrugs

In the case of `CCCc1nn(C)c2c(=O)[nH]c(-c3cc(S(=O)(=O)N4CCN(CC(=O)Oc5ccc(-c6cc(=S)ss6)cc5)CC4)ccc3OCC)nc12` [ACS 6], the “inhibition of expression of p47phox” value [1] is listed as “more than sildenafil citrate”, the “inhibition of superoxide formation” value [1] is listed as “more than sildenafil citrate” and the “% Bioactive sulfur (w/w)” value [2, 6] is listed as 3.5 % (w/w).
For `O=C(Cc1ccccc1Nc1c(Cl)cccc1Cl)Oc1ccc(-c2cc(=S)ss2)cc1` [ACS 15], the “% Bioactive sulfur (w/w)” value [2] was 6.3 % (w/w).
In the case of `O=C(CCC/C=C\C[C@@H]1[C@@H](CC[C@@H](O)CCc2ccccc2)[C@H](O)C[C@@H]1O)Oc1ccc(-c2cc(=S)ss2)cc1` [ACS 67], the “% Bioactive sulfur (w/w)” value [2] is reported as 5.3 % (w/w).
With `COc1ccc2c(c1)c(CC(=O)Oc1ccc(-c3cc(=S)ss3)cc1)c(C)n2C(=O)c1ccc(Cl)cc1` [ATB 343] the “% Bioactive sulfur (w/w)” value [2] was 5.6 % (w/w).
For `COc1ccc2cc(C(C)C(=O)Oc3ccc(C(N)=S)cc3)ccc2c1` (stereo not shown) [ATB 346], the “% Bioactive sulfur (w/w)” value [2, 6] was 8.8 % (w/w).
In the case of `C1COCCN1.COc1ccc(P(=S)(S)N2CCOCC2)cc1` (stereo not shown) [GYY 4137], the “% Bioactive sulfur (w/w)” value [2] is reported as 8.5 % (w/w).
With `[Na+].[Na+].[S-2]` [Na2S (anhydrous), Na2S] the “% Bioactive sulfur (w/w)” value [2] was 41 % (w/w).
In the case of `[Na+].[SH-]` [NaHS (anhydrous), sodium hydrogen sulfide], the uterine spontaneous contractility [3] is given as “significant dose-dependent decreases” and the angiogenesis (angiogenesis) is given as “augmented angiogenesis”.
In the case of `[S]` [Pure alpha- or beta-elemental sulfur, elemental sulfur], the “solubility in carbon disulfide” value [4] is listed as “completely soluble”.
In the case of `Oc1ccc(C=Cc2cc(O)cc(O)c2)cc1` [Resveratrol, resveratrol], the “MFR (Mobile Forms Recovery, post sperm capacitation)” value [5] is reported as 0.40 × 10^6, the mean sperm concentration [5] is reported as 10.9 million per milliliter and the “mobile forms recovered (MFR) post-sperm capacitation” value [5] is reported as 0.40 million. The “Motility A + B (%)” value ([5]; group mean) was 14.43%, the “Normal morphology (%)” value ([5]; group mean) was 32.06% and the Sperm concentration ([5]; group mean) was 10.9 × 10^6.
In the case of `C[S+]([O-])CCCCN=C=S` (stereo not shown) [Sulforaphane], the “% Bioactive sulfur (w/w)” value [2, 6] is reported as 18 % (w/w).
